Assay results reported in US7528138B2, “Pyrazolo[1,5-a]pyrimidines useful as inhibitors of protein kinases” (Vertex Pharmaceuticals Incorporated, priority 2004, dated 2009).

Experiments:
c-Met = c-Met (Homo sapiens, UniProt P08581); assay: c-Met Inhibition Assay, coupled enzyme system; format: biochemical; details: enzyme inhibition data (Ki), Table 11
Method in brief: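 Pyruvate kinase/lactate dehydrogenase-coupled NADH assay in HEPES pH 7.5 with 80 nM c-Met, 200 μM ATP and 10 μM polyGluTyr at 30° C. Compound (0.006–12.5 μM final, 12-point) preincubated 10 min before ATP start; rates over 10 min gave Ki.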

Itk = target: T1, Itk (Homo sapiens, UniProt Q08881); assay: ITK Inhibition Assay (Radiometric), radioactive-phosphate incorporation; format: biochemical; details: enzyme inhibition data (Ki), Table 11; radiometric or UV assay not stated
T1 sequence (Q08881 1-620): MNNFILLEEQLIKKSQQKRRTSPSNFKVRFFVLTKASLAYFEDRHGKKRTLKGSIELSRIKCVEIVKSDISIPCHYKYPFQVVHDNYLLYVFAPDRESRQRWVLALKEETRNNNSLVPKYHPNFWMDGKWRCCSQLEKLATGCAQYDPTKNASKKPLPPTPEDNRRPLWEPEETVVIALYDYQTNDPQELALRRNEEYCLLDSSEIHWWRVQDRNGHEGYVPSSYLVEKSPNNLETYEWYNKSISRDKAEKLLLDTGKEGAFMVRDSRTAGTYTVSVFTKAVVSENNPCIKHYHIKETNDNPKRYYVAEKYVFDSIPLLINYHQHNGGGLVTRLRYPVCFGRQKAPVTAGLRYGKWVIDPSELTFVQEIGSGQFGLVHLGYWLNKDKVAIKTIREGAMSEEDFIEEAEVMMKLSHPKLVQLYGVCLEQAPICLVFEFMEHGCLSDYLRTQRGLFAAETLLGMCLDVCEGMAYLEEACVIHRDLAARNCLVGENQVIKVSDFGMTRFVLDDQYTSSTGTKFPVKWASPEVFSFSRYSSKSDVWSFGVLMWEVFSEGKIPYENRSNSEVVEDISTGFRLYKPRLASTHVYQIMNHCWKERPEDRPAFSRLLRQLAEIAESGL
Method in brief: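 Radiometric 33P incorporation into SAM68 peptide (D332-443) with filter capture and scintillation counting; 10 min pre-incubation then 10 min reaction at 25° C. IC50 format: 30 nM Itk, 15 μM ATP, 2 μM peptide, HEPES pH 7.5. Ki(app) format: 50 nM Itk, 7.5 μM ATP, 3 μM peptide, MOPS pH 7.0.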

c-Met, sequence (P08581 25-1390): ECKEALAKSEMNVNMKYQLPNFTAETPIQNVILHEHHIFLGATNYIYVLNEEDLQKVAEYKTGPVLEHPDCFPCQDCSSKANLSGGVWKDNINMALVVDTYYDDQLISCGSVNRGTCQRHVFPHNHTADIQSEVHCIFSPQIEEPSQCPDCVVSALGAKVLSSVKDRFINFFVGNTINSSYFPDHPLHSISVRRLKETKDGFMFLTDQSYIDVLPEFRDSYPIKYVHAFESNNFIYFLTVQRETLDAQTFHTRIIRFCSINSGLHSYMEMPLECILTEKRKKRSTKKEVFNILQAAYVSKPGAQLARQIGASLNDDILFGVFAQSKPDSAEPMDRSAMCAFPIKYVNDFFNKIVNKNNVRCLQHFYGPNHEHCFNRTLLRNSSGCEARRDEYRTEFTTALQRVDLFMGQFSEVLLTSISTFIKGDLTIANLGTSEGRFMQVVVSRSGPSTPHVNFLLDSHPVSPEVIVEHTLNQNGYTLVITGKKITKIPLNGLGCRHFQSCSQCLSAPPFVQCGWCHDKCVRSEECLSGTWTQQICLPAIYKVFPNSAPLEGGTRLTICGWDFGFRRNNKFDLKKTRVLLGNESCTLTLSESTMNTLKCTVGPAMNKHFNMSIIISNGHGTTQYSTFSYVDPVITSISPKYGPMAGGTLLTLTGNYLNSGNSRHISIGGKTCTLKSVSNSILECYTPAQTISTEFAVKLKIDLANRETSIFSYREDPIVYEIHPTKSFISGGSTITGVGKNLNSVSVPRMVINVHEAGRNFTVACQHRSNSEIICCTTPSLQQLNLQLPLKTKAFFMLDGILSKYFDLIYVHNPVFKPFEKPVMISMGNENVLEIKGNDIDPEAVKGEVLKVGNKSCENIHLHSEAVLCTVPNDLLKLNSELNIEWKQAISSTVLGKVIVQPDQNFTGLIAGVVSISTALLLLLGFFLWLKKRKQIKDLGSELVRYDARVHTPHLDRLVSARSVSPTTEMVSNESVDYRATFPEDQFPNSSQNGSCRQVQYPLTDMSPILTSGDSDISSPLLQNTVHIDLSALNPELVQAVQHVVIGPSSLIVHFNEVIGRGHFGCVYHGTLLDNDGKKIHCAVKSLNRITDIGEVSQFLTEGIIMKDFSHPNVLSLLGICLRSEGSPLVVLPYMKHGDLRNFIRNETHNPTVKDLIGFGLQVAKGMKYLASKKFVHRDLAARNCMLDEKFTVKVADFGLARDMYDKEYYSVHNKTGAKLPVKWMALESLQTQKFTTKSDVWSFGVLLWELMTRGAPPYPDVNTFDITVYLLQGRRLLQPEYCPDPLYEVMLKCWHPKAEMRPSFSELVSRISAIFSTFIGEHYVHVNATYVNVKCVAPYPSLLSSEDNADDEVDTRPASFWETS

CCN1CCN(C(=O)c2ccc(-c3cnc4c(-c5ccccn5)c(N)nn4c3)nc2)C(O)C1 (stereo not shown) [Compound V-78]
Ki (c-Met): < 500 nM | Ki (Itk): < 500 nM

CCOC(=O)N1CCN(C(=O)c2ccc(-c3cnc4c(-c5ccccn5)c(N)nn4c3)nc2)CC1 [Compound V-76]
Ki (c-Met): < 500 nM | Ki (Itk): < 500 nM

COc1ccncc1-c1cnc2c(-c3ccccn3)c(N)nn2c1 [Compound V-22]
Ki (c-Met): < 500 nM | Ki (Itk): 500 to 5000 nM

Nc1nn2cc(Cl)cnc2c1-c1ccccn1 [Compound V-280]
Ki (c-Met): 500 to 5000 nM | Ki (Itk): 500 to 5000 nM

Cc1cnc2c(-c3cc(N[C@H](C)CO)ncn3)c(N)nn2c1 [Compound V-293]
Ki (c-Met): < 500 nM | Ki (Itk): 500 to 5000 nM

CN(C)CCNC(=O)c1cccc(-c2cnc3c(-c4ccccn4)c(N)nn3c2)c1 [Compound V-54]
Ki (c-Met): < 500 nM | Ki (Itk): 500 to 5000 nM

CC(C)N(C)C(=O)c1ccc(-c2cnc3c(-c4ccccn4)c(N)nn3c2)nc1 [Compound V-67]
Ki (c-Met): < 500 nM | Ki (Itk): 500 to 5000 nM

C#CCN(C)C(=O)c1ccc(-c2cnc3c(-c4ccccn4)c(N)nn3c2)nc1 [Compound V-72]
Ki (c-Met): < 500 nM | Ki (Itk): < 500 nM

Cc1cnc2c(-c3cc(NC4CCN(Cc5ccccc5)CC4)ncn3)c(N)nn2c1 [Compound V-285]
Ki (c-Met): < 500 nM | Ki (Itk): 500 to 5000 nM

Cc1cnc2c(-c3cc(Nc4ccccc4)ncn3)c(N)nn2c1 [Compound V-279]
Ki (c-Met): < 500 nM | Ki (Itk): < 500 nM

CCN(CCN)C(=O)c1ccc(-c2cnc3c(-c4ccccn4)c(N)nn3c2)nc1 [Compound V-62]
Ki (c-Met): < 500 nM | Ki (Itk): < 500 nM

Nc1nn2cc(-c3ccc(C(=O)N4CCC(N)C4)cn3)cnc2c1-c1ccccn1 (stereo not shown) [Compound V-81]
Ki (c-Met): < 500 nM | Ki (Itk): < 500 nM

COCCN1CCN(C(=O)c2ccc(-c3cnc4c(-c5ccccn5)c(N)nn4c3)nc2)CC1 [Compound V-68]
Ki (c-Met): < 500 nM | Ki (Itk): < 500 nM

COc1ccccc1Nc1cc(-c2c(N)nn3cc(C)cnc23)ncn1 [Compound V-274]
Ki (c-Met): < 500 nM | Ki (Itk): < 500 nM

CC[C@H](C)Nc1cc(-c2c(N)nn3cc(C)cnc23)ncn1 [Compound V-294]
Ki (c-Met): < 500 nM | Ki (Itk): 500 to 5000 nM

CN1CCN(C(=O)c2cccc(-c3cnc4c(-c5ccccn5)c(N)nn4c3)c2)CC1 [Compound V-55]
Ki (c-Met): < 500 nM | Ki (Itk): 500 to 5000 nM

Nc1nn2cc(-c3ccc(C(=O)N4CCC[C@@H]4CO)cn3)cnc2c1-c1ccccn1 [Compound V-93]
Ki (c-Met): < 500 nM | Ki (Itk): < 500 nM

CCCN(CCCN)C(=O)c1ccc(-c2cnc3c(-c4ccccn4)c(N)nn3c2)nc1 [Compound V-85]
Ki (c-Met): < 500 nM | Ki (Itk): < 500 nM

CN(C)CCNC(=O)c1ccc(-c2cnc3c(-c4ccccn4)c(N)nn3c2)nc1 [Compound V-65]
Ki (c-Met): < 500 nM | Ki (Itk): < 500 nM

Cc1cnc2c(-c3cc(NC(C)C)ncn3)c(N)nn2c1 [Compound V-273]
Ki (c-Met): < 500 nM | Ki (Itk): 500 to 5000 nM

CC(C)N1CCN(c2ccc(-c3cnc4c(-c5ccccn5)c(N)nn4c3)cc2)CC1 [Compound V-51]
Ki (c-Met): < 500 nM | Ki (Itk): < 500 nM

COCCN(C)C(=O)c1ccc(-c2cnc3c(-c4ccccn4)c(N)nn3c2)nc1 [Compound V-75]
Ki (c-Met): < 500 nM | Ki (Itk): 500 to 5000 nM

CCN1CCN(C(=O)c2ccc(-c3cnc4c(-c5ccccn5)c(N)nn4c3)nc2)CC1 [Compound V-63]
Ki (c-Met): < 500 nM | Ki (Itk): < 500 nM

Nc1nn2cc(N3CCOCC3)cnc2c1-c1ccccn1 [Compound V-57]
Ki (c-Met): < 500 nM | Ki (Itk): 500 to 5000 nM

COC(=O)N1CCN(C(=O)c2ccc(-c3cnc4c(-c5ccccn5)c(N)nn4c3)nc2)CC1 [Compound V-64]
Ki (c-Met): < 500 nM | Ki (Itk): < 500 nM

CCCN(CCO)C(=O)c1ccc(-c2cnc3c(-c4ccccn4)c(N)nn3c2)nc1 [Compound V-92]
Ki (c-Met): < 500 nM | Ki (Itk): < 500 nM

COc1ccc(-c2cnc3c(C#N)c(N)nn3c2)cc1 [Compound V-2]
Ki (c-Met): 500 to 5000 nM | Ki (Itk): 500 to 5000 nM

Nc1nn2cc(-c3ccc(C(=O)NCCF)cn3)cnc2c1-c1ccccn1 [Compound V-73]
Ki (c-Met): < 500 nM | Ki (Itk): 500 to 5000 nM

Nc1nn2cc(-c3ccc(C(=O)N4CCC(CCO)CC4)cn3)cnc2c1-c1ccccn1 [Compound V-83]
Ki (c-Met): < 500 nM | Ki (Itk): < 500 nM

Nc1nn2cc(-c3ccc(C(=O)N4CCSCC4)cn3)cnc2c1-c1ccccn1 [Compound V-87]
Ki (c-Met): < 500 nM | Ki (Itk): < 500 nM

Nc1nn2cc(-c3ccc(C(=O)N4CCCC(CO)C4)cn3)cnc2c1-c1ccccn1 (stereo not shown) [Compound V-71]
Ki (c-Met): < 500 nM | Ki (Itk): < 500 nM

Nc1nn2cc(-c3ccc(C(=O)N4CCCCC4CCO)cn3)cnc2c1-c1ccccn1 (stereo not shown) [Compound V-82]
Ki (c-Met): < 500 nM | Ki (Itk): < 500 nM

Cc1cnc2c(-c3cc(N[C@@H](C)CO)ncn3)c(N)nn2c1 [Compound V-295]
Ki (c-Met): < 500 nM | Ki (Itk): 500 to 5000 nM

CCN(CCCCN)C(=O)c1ccc(-c2cnc3c(-c4ccccn4)c(N)nn3c2)nc1 [Compound V-74]
Ki (c-Met): < 500 nM | Ki (Itk): < 500 nM

Nc1nn2cc(-c3ccc(C(=O)N4CCC4)cn3)cnc2c1-c1ccccn1 [Compound V-86]
Ki (c-Met): < 500 nM | Ki (Itk): 500 to 5000 nM

Cc1cnc2c(-c3cc(NC4CCCCC4)ncn3)c(N)nn2c1 [Compound V-291]
Ki (c-Met): < 500 nM | Ki (Itk): 500 to 5000 nM

CN1CCCN(C(=O)c2ccc(-c3cnc4c(-c5ccccn5)c(N)nn4c3)nc2)CC1 [Compound V-70]
Ki (c-Met): < 500 nM | Ki (Itk): < 500 nM

Cc1cnc2c(-c3cc(NC4CCN(Cc5ccccc5)C4)ncn3)c(N)nn2c1 (stereo not shown) [Compound V-286]
Ki (c-Met): < 500 nM | Ki (Itk): 500 to 5000 nM

Nc1nn2cc(-c3ccc(C(=O)N4CCC[C@@H](O)C4)cn3)cnc2c1-c1ccccn1 [Compound V-79]
Ki (c-Met): < 500 nM | Ki (Itk): < 500 nM

CCOC(=O)c1c(N)nn2cc(-c3ccc(Cl)cc3)cnc12 [Compound V-24]
Ki (c-Met): 500 to 5000 nM | Ki (Itk): 500 to 5000 nM

Cc1cnc2c(-c3cc(N4CCCCC4)ncn3)c(N)nn2c1 [Compound V-276]
Ki (c-Met): < 500 nM | Ki (Itk): < 500 nM

Cc1cnc2c(-c3cc(NCC4CC4)ncn3)c(N)nn2c1 [Compound V-277]
Ki (c-Met): < 500 nM | Ki (Itk): 500 to 5000 nM

CN(CCN)C(=O)c1ccc(-c2cnc3c(-c4ccccn4)c(N)nn3c2)nc1 [Compound V-94]
Ki (c-Met): < 500 nM | Ki (Itk): < 500 nM

CCN(CCC#N)C(=O)c1ccc(-c2cnc3c(-c4ccccn4)c(N)nn3c2)nc1 [Compound V-90]
Ki (c-Met): < 500 nM | Ki (Itk): < 500 nM

Cc1cnc2c(-c3cc(NC4CC4)ncn3)c(N)nn2c1 [Compound V-289]
Ki (c-Met): < 500 nM | Ki (Itk): 500 to 5000 nM

CCN(C(=O)c1c(N)nn2cc(-c3ccncn3)cnc12)C(C)C [Compound V-33]
Ki (c-Met): 500 to 5000 nM | Ki (Itk): 500 to 5000 nM

CSc1cc(-c2c(N)nn3cc(C)cnc23)ncn1 [Compound V-281]
Ki (c-Met): < 500 nM | Ki (Itk): 500 to 5000 nM

CCN(C)C(=O)c1ccc(-c2cnc3c(-c4ccccn4)c(N)nn3c2)nc1 [Compound V-89]
Ki (c-Met): < 500 nM | Ki (Itk): < 500 nM

Cc1cnc2c(-c3cc(NCC4CCCO4)ncn3)c(N)nn2c1 (stereo not shown) [Compound V-278]
Ki (c-Met): < 500 nM | Ki (Itk): 500 to 5000 nM

Cc1cnc2c(-c3cc(NC4CCC4)ncn3)c(N)nn2c1 [Compound V-290]
Ki (c-Met): < 500 nM | Ki (Itk): 500 to 5000 nM
